# In PubChem BioAssay (NCI):
#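 Test compounds were applied to cells in 96-well plates for 48 hours at 5 doses. TGI marks complete inhibition of growth.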
# Key:
# Experiment in all cases: NCI-60 cell line screen, 48 h
# SK-MEL-5 melanoma = system: SK-MEL-5 melanoma
# SW-620 colon = system: SW-620 colon
# HS 578T breast = system: HS 578T breast
# NCI-H522 lung = system: NCI-H522 lung
# COLO 205 colon = system: COLO 205 colon
# SK-MEL-2 melanoma = system: SK-MEL-2 melanoma
# TK-10 renal = system: TK-10 renal
# U251 CNS = system: U251 CNS
# UACC-62 melanoma = system: UACC-62 melanoma
# KM12 colon = system: KM12 colon
# EKVX NSCLC = system: EKVX NSCLC
# HL-60(TB) leukemia = system: HL-60(TB) leukemia
# RPMI-8226 leukemia = system: RPMI-8226 leukemia
# NCI-H226 lung = system: NCI-H226 lung
# T-47D breast = system: T-47D breast
# MCF7 breast = system: MCF7 breast
# HCC-2998 colon = system: HCC-2998 colon
# NCI/ADR-RES ovarian = system: NCI/ADR-RES ovarian
# SNB-19 CNS = system: SNB-19 CNS
# DU-145 prostate = system: DU-145 prostate
# SF-295 CNS = system: SF-295 CNS
# A498 renal = system: A498 renal
# RXF 393 renal = system: RXF 393 renal
# NCI-H23 lung = system: NCI-H23 lung
# M14 melanoma = system: M14 melanoma
# 786-0 renal = system: 786-0 renal
# IGROV1 ovarian = system: IGROV1 ovarian
# UACC-257 melanoma = system: UACC-257 melanoma
# BT-549 breast = system: BT-549 breast
# A549 NSCLC = system: A549 NSCLC
# PC-3 prostate = system: PC-3 prostate
# HCT-116 colon = system: HCT-116 colon
# ACHN renal = system: ACHN renal
# MDA-MB-231 breast = system: MDA-MB-231 breast
# HCT-15 colon = system: HCT-15 colon
# MDA-N = system: MDA-N
# HOP-92 NSCLC = system: HOP-92 NSCLC
# SF-539 CNS = system: SF-539 CNS
# SK-OV-3 ovarian = system: SK-OV-3 ovarian
# HT29 colon = system: HT29 colon
# OVCAR-8 ovarian = system: OVCAR-8 ovarian
# HOP-62 NSCLC = system: HOP-62 NSCLC
# SN12C renal = system: SN12C renal
# NCI-H460 lung = system: NCI-H460 lung
# CAKI-1 renal = system: CAKI-1 renal
# SK-MEL-28 melanoma = system: SK-MEL-28 melanoma
# SNB-75 CNS = system: SNB-75 CNS
# K-562 leukemia = system: K-562 leukemia
# OVCAR-4 ovarian = system: OVCAR-4 ovarian
# UO-31 renal = system: UO-31 renal
# OVCAR-3 ovarian = system: OVCAR-3 ovarian
# MDA-MB-435 = system: MDA-MB-435
# OVCAR-5 ovarian = system: OVCAR-5 ovarian
# SF-268 CNS = system: SF-268 CNS
# LOX IMVI melanoma = system: LOX IMVI melanoma
# MALME-3M melanoma = system: MALME-3M melanoma
# SR leukemia = system: SR leukemia
# MOLT-4 leukemia = system: MOLT-4 leukemia
structure (smiles),measurement,setting,value
O=C(OCC12CC3CC(CC(C3)C1)C2)c1ccc(NCc2cc(O)ccc2O)cc1,TGI,SK-MEL-5 melanoma,2.9 µM
same,TGI,SW-620 colon,> 25.7 µM
same,TGI,HS 578T breast,12.1 µM
same,TGI,NCI-H522 lung,0.854 µM
same,TGI,COLO 205 colon,2.8 µM
same,TGI,SK-MEL-2 melanoma,8.12 µM
same,TGI,TK-10 renal,4.83 µM
same,TGI,U251 CNS,5.33 µM
same,TGI,UACC-62 melanoma,3.93 µM
same,TGI,KM12 colon,4.52 µM
same,TGI,EKVX NSCLC,9.26 µM
same,TGI,HL-60(TB) leukemia,15 µM
same,TGI,RPMI-8226 leukemia,1.68 µM
same,TGI,NCI-H226 lung,6.71 µM
same,TGI,T-47D breast,2.06 µM
same,TGI,MCF7 breast,36.8 µM
same,TGI,HCC-2998 colon,4.02 µM
same,TGI,NCI/ADR-RES ovarian,8.97 µM
same,TGI,SNB-19 CNS,11 µM
same,TGI,DU-145 prostate,18.7 µM
same,TGI,SF-295 CNS,17.7 µM
same,TGI,A498 renal,11.8 µM
same,TGI,RXF 393 renal,3.03 µM
same,TGI,NCI-H23 lung,3.88 µM
same,TGI,M14 melanoma,5.77 µM
same,TGI,786-0 renal,2.35 µM
same,TGI,IGROV1 ovarian,3.21 µM
same,TGI,UACC-257 melanoma,3.28 µM
same,TGI,BT-549 breast,1.25 µM
same,TGI,A549 NSCLC,12.6 µM
same,TGI,PC-3 prostate,4.88 µM
same,TGI,HCT-116 colon,10.3 µM
same,TGI,ACHN renal,7.04 µM
same,TGI,MDA-MB-231 breast,11.6 µM
same,TGI,HCT-15 colon,5.75 µM
same,TGI,MDA-N,16.7 µM
same,TGI,HOP-92 NSCLC,17.6 µM
same,TGI,SF-539 CNS,1.93 µM
same,TGI,SK-OV-3 ovarian,20.4 µM
same,TGI,HT29 colon,14.6 µM
same,TGI,OVCAR-8 ovarian,7.28 µM
same,TGI,HOP-62 NSCLC,16 µM
same,TGI,SN12C renal,18.7 µM
same,TGI,NCI-H460 lung,7.5 µM
same,TGI,CAKI-1 renal,2.06 µM
same,TGI,SK-MEL-28 melanoma,3.54 µM
same,TGI,SNB-75 CNS,7.23 µM
same,TGI,K-562 leukemia,> 49.2 µM
same,TGI,OVCAR-4 ovarian,6.28 µM
same,TGI,UO-31 renal,1.96 µM
same,TGI,OVCAR-3 ovarian,1.67 µM
same,TGI,MDA-MB-435,7.06 µM
same,TGI,OVCAR-5 ovarian,4.71 µM
same,TGI,SF-268 CNS,20.5 µM
same,TGI,LOX IMVI melanoma,4.72 µM
CC(=O)OCC12C(OC(C)=O)C[C@@H](C)C3(CC(c4ccoc4)OC3=O)C1CCC(O)C21CO1 (stereo partly drawn),TGI,SK-MEL-5 melanoma,> 100 µM
same,TGI,HS 578T breast,> 100 µM
same,TGI,NCI-H522 lung,> 100 µM
same,TGI,MALME-3M melanoma,> 100 µM
same,TGI,COLO 205 colon,> 100 µM
same,TGI,SK-MEL-2 melanoma,> 100 µM
same,TGI,TK-10 renal,> 100 µM
same,TGI,U251 CNS,> 100 µM
same,TGI,UACC-62 melanoma,> 100 µM
same,TGI,KM12 colon,> 100 µM
same,TGI,HL-60(TB) leukemia,> 100 µM
same,TGI,RPMI-8226 leukemia,> 100 µM
same,TGI,NCI-H226 lung,> 100 µM
same,TGI,MCF7 breast,> 100 µM
same,TGI,HCC-2998 colon,> 100 µM
same,TGI,NCI/ADR-RES ovarian,> 100 µM
same,TGI,SNB-19 CNS,> 100 µM
same,TGI,DU-145 prostate,> 100 µM
same,TGI,SF-295 CNS,> 100 µM
same,TGI,A498 renal,> 100 µM
same,TGI,RXF 393 renal,> 100 µM
same,TGI,NCI-H23 lung,> 100 µM
same,TGI,M14 melanoma,> 100 µM
same,TGI,SR leukemia,> 100 µM
same,TGI,MOLT-4 leukemia,> 100 µM
same,TGI,786-0 renal,> 100 µM
same,TGI,IGROV1 ovarian,> 100 µM
same,TGI,UACC-257 melanoma,> 100 µM
same,TGI,BT-549 breast,> 100 µM
same,TGI,A549 NSCLC,> 100 µM
same,TGI,PC-3 prostate,> 100 µM
same,TGI,HCT-116 colon,> 100 µM
same,TGI,ACHN renal,> 100 µM
same,TGI,MDA-MB-231 breast,> 100 µM
same,TGI,HCT-15 colon,> 100 µM
same,TGI,MDA-N,> 100 µM
same,TGI,HOP-92 NSCLC,> 100 µM
same,TGI,SF-539 CNS,> 100 µM
same,TGI,HT29 colon,> 100 µM
same,TGI,OVCAR-8 ovarian,> 100 µM
same,TGI,HOP-62 NSCLC,> 100 µM
same,TGI,SN12C renal,> 100 µM
same,TGI,CAKI-1 renal,> 100 µM
same,TGI,SK-MEL-28 melanoma,> 100 µM
same,TGI,SNB-75 CNS,> 100 µM
same,TGI,K-562 leukemia,> 100 µM
same,TGI,OVCAR-4 ovarian,> 100 µM
same,TGI,UO-31 renal,> 100 µM
same,TGI,OVCAR-3 ovarian,> 100 µM
same,TGI,MDA-MB-435,> 100 µM
same,TGI,OVCAR-5 ovarian,> 100 µM
same,TGI,SF-268 CNS,> 100 µM
same,TGI,LOX IMVI melanoma,> 100 µM
